Measurements as given in patent US20130310384A1, “Sulfonamide-Containing Compounds” (THE BRIGHAM AND WOMEN'S HOSPITAL, INC., priority 2010, published 2013).

Experiments:
[1] = test system: Human Aβ38, Aβ40 and Aβ42 levels; assay: Acute in vivo efficacy study in hAPPSL transgenic mice (Aβ levels by immunosorbent assay); conditions: 6-month-old female hAPPSL Tg mice, oral b.i.d. 50 and 100 mg/kg, 7 consecutive days
Protocol: (§1) A preliminary acute efficacy study in 6-month-old female hAPPSL transgenic (Tg) mice (Rockenstein, E., Mallory, M., Mante, M., Sisk, A., and Masliah, E. (2001) J Neurosci Res 66, 573-582) was completed on the compound of Example 1. Mice were treated orally (b.i.d.) with two doses, 50 mg/kg (n=4) and 100 mg/kg (n=4) for 7 consecutive days. […] Human Aβ38, Aβ40 and Aβ42 levels were determined in the cortex, hippocampus, and cerebral spinal fluid (CSF) by an immunosorbent assay.

[2] = Tolerability in the acute in vivo study (7 consecutive days, oral b.i.d.)
From the text: [VIII] Embodiments can include any one or more of the following advantages. […] Selective inhibition of the cleavage of APP relative to that of the Notch receptor is believed to minimize certain unwanted side effects, such as lymphopoiesis and intestinal cell differentiation. […] This is an indication that there could be a minimization of side effects with these types of compounds
as §1

[3] = hAPPSL Tg mice, oral b.i.d. 50 and 100 mg/kg, 7 consecutive days

| SMILES | melting point [°C] | further results |
| --- | --- | --- |
| CC[C@@H](c1ccccc1)N(Cc1ccc(C(=O)O)cc1)S(=O)(=O)c1ccc(Cl)cc1 [Example 1, (S)-4-((4-Chloro-N-(1-phenylpropyl)phenylsulfonamido)methyl)benzoic acid] | – | Reduction of Aβ40 in the hippocampus ([1]; p<0.01): Statistically significant reductions; Reduction of Aβ38 in the hippocampus ([1]; p<0.05): Statistically significant reductions; Toxicity in in vivo efficacy study ([2]; 100 mg/kg b.i.d. for 7 consecutive days, transgenic and nontransgenic mice): no toxicity was observed; Adverse side effects on any organ compared to vehicle controls [2, 3]: no obvious adverse side effects; Mortality during treatment [2, 3]: No mice died |
| CC[C@@H](c1ccccc1)N(Cc1ccc(C(=O)O)c(F)c1F)S(=O)(=O)c1ccc(Cl)cc1 [Example 127, (S)-4-((4-Chloro-N-(1-phenylpropyl)phenylsulfonamido)methyl)-2,3-difluorobenzoic acid] | 127 to 129 | – |
| COC(=O)c1ccc(CN([C@@H](C)c2ccccc2)S(=O)(=O)c2ccc(Cl)cc2)cc1 [Example 12, (S)-Methyl 4-((4-chloro-N-(1-phenylethyl)phenylsulfonamido)methyl)benzoate] | 105 to 106 | – |
| COC(=O)c1ccc(CN(C(C)C)S(=O)(=O)c2ccc(Cl)cc2)cc1 [Example 44, Methyl 4-((4-chloro-N-isopropylphenylsulfonamido)methyl)benzoate] | 110 to 112 | – |
| C[C@H](O)[C@H](CO)N(Cc1ccc(C(=O)O)cc1)S(=O)(=O)c1ccc(Cl)cc1 [Example 118, 4-((4-Chloro-N-((2S,3S)-1,3-dihydroxybutan-2-yl)phenylsulfonamido)methyl)benzoic acid] | 182 to 184 | – |
| O=C(O)c1ccc(CN([C@@H](CO)c2ccccc2)S(=O)(=O)c2ccc(Cl)cc2)cc1 [Example 51, (R)-4-((4-Chloro-N-(2-hydroxy-1-phenylethyl)phenylsulfonamido)methyl)benzoic acid] | 85 to 87 | – |
| CC[C@H](c1ccc(C(F)(F)F)cc1)N(Cc1ccc(C(=O)OC)cc1)S(=O)(=O)c1ccc(Cl)cc1 [Example 123, (R)-Methyl 4-((4-chloro-N-(1-(4-(trifluoromethyl)phenyl)propyl)phenylsulfonamido)methyl)benzoate] | 120 to 121 | – |
| CC[C@@H](c1ccc(C(F)(F)F)cc1)N(Cc1ccc(C(=O)O)cc1)S(=O)(=O)c1ccc(Cl)cc1 [Example 125, (S)-4-((4-Chloro-N-(1-(4-(trifluoromethyl)phenyl)propyl)phenylsulfonamido)methyl)benzoic acid] | 101 to 103 | – |
| COC(=O)c1ccc(CN([C@@H](C)c2ccc(Cl)cc2)S(=O)(=O)c2ccc(Cl)cc2)cc1 [Example 141, (S)-Methyl 4-((4-chloro-N-(1-(4-chlorophenyl)ethyl)phenylsulfonamido)methyl)benzoate] | 67 to 69 | – |
| CC[C@@H](c1ccc(C#N)cc1)N(Cc1ccc(C(=O)O)cc1)S(=O)(=O)c1ccc(Cl)cc1 [Example 103, (S)-4-((4-Chloro-N-(1-(4-cyanophenyl)propyl)phenylsulfonamido)methyl)benzoic acid] | 132 to 133 | – |
| COc1ccc(CN([C@@H](CO)c2ccccc2)S(=O)(=O)c2ccc(Cl)cc2)cc1C(=O)O [Example 134, (R)-5-((4-Chloro-N-(2-hydroxy-1-phenylethyl)phenylsulfonamido)methyl)-2-methoxybenzoic acid] | 79 to 80 | – |
| CC[C@H](c1ccc(C(F)(F)F)cc1)N(Cc1ccc(C(=O)O)cc1)S(=O)(=O)c1ccc(Cl)cc1 [Example 126, (R)-4-((4-Chloro-N-(1-(4-(trifluoromethyl)phenyl)propyl)phenylsulfonamido)methyl)benzoic acid] | 105 to 107 | – |
| CCC(CC)N(Cc1ccc(C(=O)OC)cn1)S(=O)(=O)c1ccc(F)cc1 [Example 34, Methyl 6-((4-fluoro-N-(pentan-3-yl)phenylsulfonamido)methyl)nicotinate] | 117 to 119 | – |
| CC[C@@H](c1ccccc1)N(Cc1ccc(S(C)(=O)=O)cc1)S(=O)(=O)c1ccc(Cl)cc1 [Example 2, (S)-4-Chloro-N-(4-(methylsulfonyl)benzyl)-N-(1phenylpropyl)benzenesulfonamide] | 61 to 63 | – |
| CC[C@@H](c1ccccc1)N(Cc1ccc(C(=O)O)cc1F)S(=O)(=O)c1ccc(Cl)cc1 [Example 52, (S)-4-((4-Chloro-N-(1-phenylpropyl)phenylsulfonamido)methyl)-3-fluorobenzoic acid] | 118 to 120 | – |
| O=C(O)c1ccc(CN([C@H](CO)c2ccccc2)S(=O)(=O)c2ccc(Cl)cc2)cc1 (hydrate or solvate) [Example 95, (S)-4-((4-Chloro-N-(2-hydroxy-1-phenylethyl)phenylsulfonamido)methyl)benzoic acid] | 86 to 88 | – |
